Assay results: ChEMBL document CHEMBL4368923 (J Med Chem, 2019)
Converted amounts (≈) assume the structure as drawn.

Key:
[1] = tested on: Human immunodeficiency virus 1; assay: Antiviral activity against HIV1 harboring reverse transcriptase L100I mutant infected in human MT4 cells assessed as inhibition of virus-induced cytotoxicity after 5 days by MTT assay; format: functional, organism-based; conditions: Human immunodeficiency virus 1, MT4, 120 h
[2] = tested on: Human immunodeficiency virus 1; assay: Antiviral activity against HIV1 harboring reverse transcriptase K103N mutant infected in human MT4 cells assessed as inhibition of virus-induced cytotoxicity after 5 days by MTT assay; format: functional, organism-based; conditions: Human immunodeficiency virus 1, MT4, 120 h
[3] = Solubility of the compound in deionized water at pH 7
[4] = tested on: Human immunodeficiency virus 1; assay: Antiviral activity against HIV1 harboring reverse transcriptase E138K mutant infected in human MT4 cells assessed as inhibition of virus-induced cytotoxicity after 5 days by MTT assay; format: functional, organism-based; conditions: Human immunodeficiency virus 1, MT4, 120 h
[5] = tested on: Human immunodeficiency virus 1; assay: Antiviral activity against HIV1 RES056 harboring reverse transcriptase K103N/Y181C double mutant infected in human MT4 cells assessed as inhibition of virus-induced cytotoxicity after 5 days by MTT assay; format: functional, organism-based; conditions: Human immunodeficiency virus 1, RES056, MT4, 120 h
[6] = tested on: Human immunodeficiency virus 1; assay: Antiviral activity against HIV1 harboring reverse transcriptase Y181C mutant infected in human MT4 cells assessed as inhibition of virus-induced cytotoxicity after 5 days by MTT assay; format: functional, organism-based; conditions: Human immunodeficiency virus 1, MT4, 120 h
[7] = Selectivity index, ratio of CC50 for human MT4 cells to EC50 for HIV1 3B infected in human MT4 cells
[8] = Selectivity index, ratio of CC50 for human MT4 cells to EC50 for HIV1 RES056 harboring reverse transcriptase K103N/Y181C double mutant infected in human MT4 cells
[9] = Cytotoxicity against human MT4 cells assessed as reduction in cell viability after 5 days by MTT assay; format: cell-based
[10] = molecular target: Human immunodeficiency virus type 1 reverse transcriptase (Human immunodeficiency virus 1, UniProt Q72547); assay: Inhibition of HIV1 reverse transcriptase p66/p51 using poly(rA)/oligo(dT)16 as template/primer measured after 40 mins by pico-green based spectrofluorometric analysis
[11] = tested on: Human immunodeficiency virus 1; assay: Antiviral activity against HIV1 3B infected in human MT4 cells assessed as inhibition of virus-induced cytotoxicity after 5 days by MTT assay; format: functional, organism-based; conditions: Human immunodeficiency virus 1, 3B, MT4, 120 h
[12] = tested on: Human immunodeficiency virus 1; assay: Antiviral activity against HIV1 harboring reverse transcriptase F227L/V106A double mutant infected in human MT4 cells assessed as inhibition of virus-induced cytotoxicity after 5 days by MTT assay; format: functional, organism-based; conditions: Human immunodeficiency virus 1, MT4, 120 h
[13] = tested on: Human immunodeficiency virus 1; assay: Antiviral activity against HIV1 harboring reverse transcriptase Y188L mutant infected in human MT4 cells assessed as inhibition of virus-induced cytotoxicity after 5 days by MTT assay; format: functional, organism-based; conditions: Human immunodeficiency virus 1, MT4, 120 h
[14] = Solubility in water at pH 7; format: physicochemical

Row | SMILES | EC50 [1] [nM] | EC50 [2] [nM] | solubility [3] [µg/mL] | EC50 [4] [nM] | EC50 [5] [µM] | EC50 [6] [nM] | selectivity ratio ([7]; MT4 cells) | selectivity ratio ([8]; MT4 cells) | CC50 at 120 h [9] [µM] | IC50 [10] [nM] | EC50 ([11]; read-out: EC50) [nM] | EC50 ([11]; read-out: pEC50 (converted)) [nM] | EC50 [12] [nM] | EC50 [13] [µM] | solubility [14] [µg/mL] | selectivity ratio [7] | selectivity ratio [8]
1 | Cc1cc(C#N)cc(C)c1Oc1ccnc(Nc2ccc(CN3CCOCC3)cc2)n1 | 410 | 68 | 33.4 (≈ 80.4 µM) | 140 | > 23 | 910 | 2040 | < 1 | 23 | 42 | 11 | 11 | 1800 | 4.93 |  |  | 
2 | Cc1cc(C#N)cc(C)c1Oc1ccnc(Nc2ccc(CN3CCC(NC(=O)OC(C)(C)C)CC3)cc2)n1 |  |  |  |  | > 4.34 |  | 21 | < 1 | 4.34 | 413 | 200 | 200 |  |  |  |  | 
3 | Cc1cc(/C=C/C#N)cc(C)c1Oc1ccnc(Nc2ccc(CN3CCC(NC(=O)OC(C)(C)C)CC3)cc2)n1 | 280 | 68 |  | 150 | > 3.55 | 570 | 138 | < 1 | 3.55 | 499 | 26 | 25.7 | ≥ 1140 | > 4.27 |  |  | 
4 | Cc1cc(/C=C/C#N)cc(C)c1Nc1ccnc(Nc2ccc(C#N)cc2)n1 [RILPIVIRINE] |  |  |  |  |  |  |  |  | 4.38 |  | 1.3 | 1.29 |  |  |  |  | 
5 | Cc1cc(C#N)cc(C)c1Oc1ccnc(Nc2ccc(CN3CCC(NS(N)(=O)=O)CC3)cc2)n1 | 2150 | 500 |  | 450 | > 3.72 | 6540 | 40 | < 1 | 3.72 | 152 | 92 | 91.2 | ≥ 6820 | > 6.97 |  |  | 
6 | Cc1cc(C#N)cc(C)c1Oc1cc(Cl)nc(Nc2ccc(CN3CCOCC3)cc2)c1 |  |  |  |  | > 6.9 |  | 7 | < 1 |  |  | 930 |  |  |  |  |  | 
7 | Cc1cc(/C=C/C#N)cc(C)c1Oc1ccnc(Nc2ccc(CN3CCN(C(=O)OC(C)(C)C)CC3)cc2)n1 | 200 | 20 |  | 130 | > 3.04 | 420 | 209 | < 1 | 3.04 | 297 | 15 | 15.1 | 150 | > 4.03 |  |  | 
8 | Cc1cc(/C=C/C#N)cc(C)c1Oc1ccnc(Nc2ccc(CN3CCC(NS(C)(=O)=O)CC3)cc2)n1 | 130 | 25 |  | 36 | > 6.99 | 330 | 1020 | < 1 | 6.99 | 76 | 6.9 | 6.92 | 470 | 8.35 |  |  | 
9 | Cc1cc(C#N)cc(C)c1Oc1ccnc(Nc2ccc(CNC3CCN(C(=O)OC(C)(C)C)CC3)cc2)n1 |  |  |  |  | > 3.51 |  | 19 | < 1 | 3.51 | 277 | 190 | 191 |  |  |  |  | 
10 | Cc1cc(C#N)cc(C)c1Oc1ccnc(Nc2ccc(CN3CCN(S(C)(=O)=O)CC3)cc2)n1 | 110 | 230 |  | 89 | > 3.43 | 470 | 475 | < 1 | 3.43 | 49 | 7.2 | 7.24 | 1030 | > 5.22 |  |  | 
11 | Cc1cc(C)c(Oc2nc(N)nc(Nc3ccc(CN4CCOCC4)cc3)n2)c(C)c1 |  |  |  |  | > 12.9 |  | ≥ 105 | 1 | ≥ 12.9 | 442 | 120 | 120 |  |  |  |  | 
12 | Cc1cc(C#N)cc(C)c1Oc1nc(Nc2ccc(C#N)cc2)nc(N)c1Br [ETRAVIRINE] | 7.4 | 3.9 | < 1 |  | 0.05 | 21 |  |  | > 4.59 |  | 3.5 | 3.47 | 26 | 0.027 | < 1 |  | 
13 | Cc1ccnc2c1NC(=O)c1cccnc1N2C1CC1 [NEVIRAPINE] | 1640 | 10900 |  |  | > 15 | > 15000 |  |  | > 15 |  | 240 | 240 | > 15000 | > 15 |  |  | 
14 | O=C1Nc2ccc(Cl)cc2[C@@](C#CC2CC2)(C(F)(F)F)O1 [EFAVIRENZ] | 52 | 89 |  | 6 | 0.24 |  |  |  | > 6.34 |  |  |  | 270 | 0.24 |  |  | 
15 | Cc1cn([C@H]2C[C@H](N=[N+]=[N-])[C@@H](CO)O2)c(=O)[nH]c1=O [ZIDOVUDINE] | 3.6 | 11 |  | 14 | 0.015 | 5.6 |  |  | > 7.48 |  |  |  | 6.2 | 0.0051 |  | > 704 | > 515
16 | Nc1ccn([C@@H]2CS[C@H](CO)O2)c(=O)n1 [LAMIVUDINE] |  |  |  |  |  |  | > 14 |  | > 87.2 |  | 6410 |  |  |  |  |  | 
17 | Cc1cc(C#N)cc(C)c1Oc1ccnc(Nc2ccc(CN3CCC(NS(C)(=O)=O)CC3)cc2)n1 | 700 | 460 |  | 380 | > 18.1 | 2600 | 331 | < 1 | 18.1 | 79 | 55 | 55 | 3230 | ≥ 7.8 |  |  | 
